Marks after values point to notes of the source that are not given here.
Legend:
Format in all cases: in vivo
[1] = test system: Puccinia recondite f. sp. tritici (the causal agent of wheat leaf rust); test: Test A: wheat leaf rust, preventive spray on wheat seedlings, visual disease rating; conditions: wheat leaf rust, preventive spray on wheat seedlings
Outline: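 This was a preventive test: Puccinia recondite f. sp. tritici inoculum was applied one day after compound spray to run-off. Test suspensions were made in 50/50 acetone/water with 250 ppm surfactant, at 200 ppm (800 g/ha equivalent) or 40 ppm. Visual ratings of % disease control relative to controls were made after 24 h of saturated humidity and 7 growth-chamber days, all at 20° C.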

[2] = test system: Blumeria graminis f. sp. tritici (also known as Erysiphe graminis f. sp. tritici, the causal agent of wheat powdery mildew); test: Test D: wheat powdery mildew, preventive spray on wheat seedlings, visual disease rating; conditions: wheat powdery mildew, preventive spray on wheat seedlings
Outline: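 Preventive test: seedlings sprayed to run-off and inoculated with powdery mildew spores one day later. Suspensions were made in 50/50 acetone/water with 250 ppm Trem 014 surfactant (200 ppm equals 800 g/ha). Visual ratings after 8 days at 20 °C give percent disease control versus controls.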

[3] = test system: Septoria tritici (the causal agent of wheat leaf blotch); test: Test B: wheat leaf blotch, preventive spray on wheat seedlings, visual disease rating; conditions: wheat leaf blotch, preventive spray on wheat seedlings
Outline: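 Preventive test: Septoria tritici spores applied one day after run-off spraying of seedlings (200 ppm equals 800 g/ha; some tests 40 ppm). After 48 h at 24 °C saturated atmosphere and 19 days at 20 °C, disease scored visually as % control relative to untreated plants.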

[4] = test system: Botrytis cinerea (the causal agent of tomato Botrytis); test: Test C: tomato Botrytis, preventive spray on tomato seedlings, visual disease rating; conditions: tomato Botrytis, preventive spray on tomato seedlings
Outline: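 Preventive test: B. cinerea spore inoculation one day after tomato seedlings were sprayed to run-off with compound suspended in 50/50 acetone–water plus 250 ppm surfactant. Plants held 48 h at 20° C in saturated air, then 3 days at 24° C; visual ratings scored 100 (full control) to 0 versus controls; some entries used 40 ppm.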

[5] = no asterisk (standard test suspension concentration, not 40 ppm)
[6] = asterisk: 40 ppm test suspension

Row | Compound | Test A rating (100 = 100% disease control, 0 = no disease control relative to the controls) [1, 5] [%] | Test D rating (100 = 100% disease control, 0 = no disease control relative to the controls) [2, 5] [%] | Test B rating (100 = 100% disease control, 0 = no disease control relative to the controls) [3, 5] [%] | Test C rating (100 = 100% disease control, 0 = no disease control relative to the controls) [4, 5] [%] | Test A rating (100 = 100% disease control, 0 = no disease control relative to the controls) [1, 6] | Test D rating (100 = 100% disease control, 0 = no disease control relative to the controls) [2, 6] | Test B rating (100 = 100% disease control, 0 = no disease control relative to the controls) [3, 6] | Test C rating (100 = 100% disease control, 0 = no disease control relative to the controls) [4, 6]
1 | Cc1cc(F)ccc1C(O)c1c(Cl)nc(Cl)n1-c1ccc(Cl)cc1Cl (single isomer, unassigned) [compound 84] | 96 | 0 | 100 | 0 | – | – | – | –
2 | Cc1cc(F)ccc1C(O)c1c(Cl)nc(Cl)n1-c1ccc(Cl)cc1Cl (single isomer, unassigned) [compound 85] | 99 | 87 | 100 | 88 | – | – | – | –
3 | OC(c1ccc(Cl)cc1)c1c(Cl)nc(Cl)n1-c1ccc(Cl)cc1Cl (single isomer, unassigned) [compound 86] | 96 | 56 | 100 | 73 | – | – | – | –
4 | OC(c1ccc(Cl)cc1)c1c(Cl)nc(Cl)n1-c1ccc(Cl)cc1Cl (single isomer, unassigned) [compound 87] | 91 | 48 | 100 | 60 | – | – | – | –
5 | OC(c1ccc(F)cc1Cl)c1c(Cl)ncn1-c1c(F)cccc1F (stereo not drawn) [Compound 1, 4-chloro-α-(2-chloro-4-fluorophenyl)-1-(2,6-difluorophenyl)-1H-imidazole-5-methanol] | 100 | 99 | 100 | 99 | – | – | – | –
6 | OC(c1ccc(F)cc1F)c1c(Cl)ncn1-c1ccc(F)cc1Cl (stereo not drawn) [Compound 2, 4-chloro-1-(2-chloro-4-fluorophenyl)-α-(2,4-difluorophenyl)-1H-imidazole-5-methanol] | 100 | 81 | 100 | 100 | – | – | – | –
7 | Cc1ncc(C(O)c2ccc(F)cc2Cl)n1-c1c(F)cc(F)cc1F (stereo not drawn) [Compound 167, α-(2-chloro-4-fluorophenyl)-2-methyl-1-(2,4,6-trifluorophenyl)-1H-imidazole-5-methanol] | 100 | 0 | 100 | 33 | – | – | – | –
8 | Cc1nc(Br)c(C(O)c2ccc(F)cc2Cl)n1-c1c(F)cc(F)cc1F (stereo not drawn) [Compound 168, 4-bromo-α-(2-chloro-4-fluorophenyl)-2-methyl-1-(2,4,6-trifluorophenyl)-1H-imidazole-5-methanol] | – | – | – | – | 100* % | 56* % | 100* % | 99* %
9 | COc1ccc(C(O)c2c(Br)ncn2-c2c(F)cccc2F)c(Cl)c1 (stereo not drawn) [Compound 274, 4-bromo-1-(2,6-difluorophenyl)-α-(2-chloro-4-methoxyphenyl)-1H-imidazole-5-methanol] | 100 | 64 | 97 | 0 | – | – | – | –
10 | COc1ccc(C(O)c2c(Br)nc(Cl)n2-c2c(F)cccc2F)c(Cl)c1 (stereo not drawn) [Compound 287, 4-bromo-2-chloro-α-(2-chloro-4-methoxyphenyl)-1-(2,6-difluorophenyl)-1H-imidazole-5-methanol] | – | – | – | – | 100* % | 97* % | 100* % | 100* %
11 | OC(c1ccc(F)cc1Cl)c1c(Cl)nc(Cl)n1-c1c(F)cc(F)cc1Cl (stereo not shown) [compound 42] | 100 | 100 | 100 | 100 | – | – | – | –
12 | Cc1cc(F)ccc1C(O)c1c(Cl)nc(Cl)n1-c1c(F)cccc1F (stereo not shown) [compound 43] | 100 | 100 | 100 | 100 | – | – | – | –
13 | OC(c1ccc(Cl)cc1)c1c(Cl)nc(Cl)n1-c1c(F)cc(F)cc1Br (stereo not shown) [compound 44] | 99 | 88 | 100 | 99 | – | – | – | –
14 | Cc1nc(Cl)n(-c2ccc(F)cc2Cl)c1C(O)c1c(F)cccc1F (stereo not shown) [compound 46] | 100 | 100 | 100 | 100 | – | – | – | –
15 | OC(c1c(F)cc(F)cc1F)c1c(Cl)nc(Cl)n1-c1ccc(F)cc1Cl (stereo not shown) [compound 49] | 100 | 100 | 100 | 100 | – | – | – | –
16 | Cc1ccc(C(O)c2c(Br)nc(C)n2-c2c(F)cccc2F)c(F)c1 (stereo not shown) [compound 52] | – | – | – | – | 99* % | 35-* % | 100* % | 37* %
17 | COc1ccc(C(O)c2c(Br)nc(C)n2-c2c(F)cccc2F)c(F)c1 (stereo not shown) [compound 53] | – | – | – | – | 100* % | 43* % | 100* % | 99* %
18 | Cc1nc(Cl)c(C(O)c2ccc(Cl)cc2F)n1-c1c(F)cccc1F (stereo not shown) [compound 54] | – | – | – | – | 98* % | 69* % | 100* % | 80* %
19 | Cc1ccc(C(O)c2c(Cl)nc(C)n2-c2c(F)cccc2F)c(F)c1 (stereo not shown) [compound 55] | – | – | – | – | 100* % | 98* % | 100* % | 98* %

— US20130143929A1, “FUNGICIDAL IMIDAZOLES” (EI DU PONT DE NEMOURS AND COMPANY, priority 2010, published 2013)
